Results reported in US4175123A, “Amino-sugar derivatives, process for their preparation and pharmaceutical composition thereof” (Bayer Aktiengesellschaft, priority 1976, dated 1979).

Legend:
glucosidase [1] = assay: Starch feeding test: postprandial blood sugar after oral starch + glucosidase inhibitor in fasting rats; format: in vivo, rat; conditions: for Blood sugar ± standard deviation, 45 minutes: starch control 120 ± 7.9, fasting control 102 ± 6.7; for Blood sugar ± standard deviation, 60 minutes: starch control 118 ± 6.9, fasting control 88 ± 7.4
Procedure: (§1) The in vivo activity of the compound was tested on some examples using the experimental arrangement described in the following text.
(§2) Oral administration of starch or sucrose causes a rise in the blood sugar in warm-blooded animals, provided that the carbohydrates are enzymatically degraded in the small intestine to monosaccharides. The inhibition of their enzymatic hydrolysis by glucosidase inhibitors causes a reduced rise in the blood sugar.
(§3) In order to detect the action of glucosidase inhibitors, 6 fasting rats receive perorally, 1 g of broiled starch or 2.5 g of sucrose/kg in the form of an aqueous suspension or in the form of an aqueous solution (starch and sucrose control respectively). An equal number of rats receive the glucosidase inhibitor in the dose indicated, together with the same amount of the carbohydrate concerned. An equal volume of physiological sodium chloride solution is administered orally to a further six rats (control). After administration of the carbohydrate concerned±glucosidae inhibitor, the postprandial change in blood sugar is measured, at the times indicated, in blood from the postorbital venous plexus in an auto-analyser according to the method of W. S. Hoffmann [J biol. Chem 120, 51 (1937)].

glucosidase [2] = assay: Sucrose feeding test: postprandial blood sugar after oral sucrose + glucosidase inhibitor in fasting rats; format: in vivo, rat
Procedure: as §1, §2, §3

[3] = 10 mg/kg perorally + 1 g starch/kg, starch control 146 ± 19, fasting control 82 ± 12
[4] = 10 mg/kg perorally + 1 g starch/kg, starch control 144 ± 8.9, fasting control 72 ± 10
[5] = 10 mg/kg perorally + 1 g starch/kg
[6] = 10 mg/kg perorally + 2.5 g sucrose/kg, sucrose control 113 ± 6.5, fasting control 61 ± 13
[7] = 10 mg/kg perorally + 2.5 g sucrose/kg, sucrose control 116 ± 9.2, fasting control 65 ± 3.9
[8] = 10 mg/kg perorally + 2.5 g sucrose/kg, sucrose control 104 ± 12, fasting control 66 ± 6.9
[9] = 10 mg/kg perorally + 2.5 g sucrose/kg, sucrose control 123 ± 8.1, fasting control 76 ± 3.7

SMILES | Blood sugar ± standard deviation, 15 minutes (glucosidase [1]; [3]) [mg/dL] | Blood sugar ± standard deviation, 30 minutes (glucosidase [1]; [4]) [mg/dL] | Blood sugar ± standard deviation, 45 minutes (glucosidase [1]; [5]) [mg/dL] | Blood sugar ± standard deviation, 60 minutes (glucosidase [1]; [5]) [mg/dL] | Blood sugar ± standard deviation, 15 minutes (glucosidase [2]; [6]) [mg/dL] | Blood sugar ± standard deviation, 30 minutes (glucosidase [2]; [7]) [mg/dL] | Blood sugar ± standard deviation, 45 minutes (glucosidase [2]; [8]) [mg/dL] | Blood sugar ± standard deviation, 60 minutes (glucosidase [2]; [9]) [mg/dL] | other results
C[C@H]1O[C@H](O[C@H]2[C@H](O)[C@@H](O)[C@@H](O[C@H]3[C@H](O)[C@@H](O)[C@H](Oc4ccc([N+](=O)[O-])cc4)O[C@@H]3CO)O[C@@H]2CO)[C@H](O)[C@@H](O)[C@@H]1N[C@H]1C=C(CO)[C@@H](O)[C@H](O)[C@H]1O [Compound 1, p-Nitrophenyl-O-{C}-(1→4)-O-α-D-glcp-(1→4)-β-D-glucopyranoside] | – | – | – | – | – | – | – | – | Blood sugar ± standard deviation, 15 minutes (glucosidase [1]; 0.86 mg/kg perorally + 1 g starch/kg, starch control 131 ± 7.2, fasting control 60 ± 4.2): 93 ± 6.4 mg/dL; Blood sugar ± standard deviation, 30 minutes (glucosidase [1]; 0.86 mg/kg perorally + 1 g starch/kg, starch control 113 ± 9.2, fasting control 62 ± 3.4): 84 ± 12 mg/dL; Blood sugar ± standard deviation, 15 minutes (glucosidase [2]; 0.86 mg/kg perorally + 2.5 g sucrose/kg, sucrose control 128 ± 8.0, fasting control 60 ± 4.6): 103 ± 6.4 mg/dL; Blood sugar ± standard deviation, 30 minutes (glucosidase [2]; 0.86 mg/kg perorally + 2.5 g sucrose/kg, sucrose control 133 ± 8.7, fasting control 64 ± 3.7): 110 ± 10 mg/dL; Blood sugar ± standard deviation, 45 minutes (glucosidase [2]; 0.86 mg/kg perorally + 2.5 g sucrose/kg, sucrose control 134 ± 6.1, fasting control 73 ± 7.1): 108 ± 13 mg/dL; Blood sugar ± standard deviation, 60 minutes (glucosidase [2]; 0.86 mg/kg perorally + 2.5 g sucrose/kg, sucrose control 119 ± 10, fasting control 66 ± 4.2): 107 ± 11 mg/dL
C[C@H]1O[C@H](O[C@H]2[C@H](O)[C@@H](O)[C@@H](O[C@H]3[C@H](O)[C@@H](O)[C@H](Oc4ccccc4)O[C@@H]3CO)O[C@@H]2CO)[C@H](O)[C@@H](O)[C@@H]1N[C@H]1C=C(CO)[C@@H](O)[C@H](O)[C@H]1O [Compound 2, Phenyl-O-{C}-(1→4)-O-α-D-glcp-(1→4)-β-D-glucopyranoside] | 102 ± 10 | 73 ± 9.1 | 100 ± 6.5 | 108 ± 9.3 | 79 ± 4.1 | 86 ± 10 | 74 ± 7.2 | 71 ± 15 | –
C[C@H]1O[C@H](O[C@H]2[C@H](O)[C@@H](O)[C@@H](O[C@H]3[C@H](O)[C@@H](O)[C@H](Oc4cccc(O)c4)O[C@@H]3CO)O[C@@H]2CO)[C@H](O)[C@@H](O)[C@@H]1N[C@H]1C=C(CO)[C@@H](O)[C@H](O)[C@H]1O [Compound 3, m-Hydroxyphenyl-O-{C}-(1→4)-O-α-D-glcp-(1→4)-β-D- glucopyranoside] | – | – | – | – | – | – | – | – | Blood sugar ± standard deviation, 15 minutes (glucosidase [1]; 0.92 mg/kg perorally + 1 g starch/kg, starch control 131 ± 7.2, fasting control 60 ± 4.2): 89 ± 8.0 mg/dL; Blood sugar ± standard deviation, 30 minutes (glucosidase [1]; 0.92 mg/kg perorally + 1 g starch/kg, starch control 113 ± 9.2, fasting control 62 ± 3.4): 97 ± 13 mg/dL; Blood sugar ± standard deviation, 15 minutes (glucosidase [2]; 0.92 mg/kg perorally + 2.5 g sucrose/kg, sucrose control 128 ± 8.0, fasting control 60 ± 4.6): 97 ± 10 mg/dL; Blood sugar ± standard deviation, 30 minutes (glucosidase [2]; 0.92 mg/kg perorally + 2.5 g sucrose/kg, sucrose control 133 ± 8.7, fasting control 64 ± 3.7): 108 ± 4.2 mg/dL; Blood sugar ± standard deviation, 45 minutes (glucosidase [2]; 0.92 mg/kg perorally + 2.5 g sucrose/kg, sucrose control 134 ± 6.1, fasting control 73 ± 7.1): 112 ± 15 mg/dL; Blood sugar ± standard deviation, 60 minutes (glucosidase [2]; 0.92 mg/kg perorally + 2.5 g sucrose/kg, sucrose control 119 ± 10, fasting control 66 ± 4.2): 111 + 11 mg/dl
COC(=O)c1cccc(O[C@@H]2O[C@H](CO)[C@@H](O[C@H]3O[C@H](CO)[C@@H](O[C@H]4O[C@H](C)[C@@H](N[C@H]5C=C(CO)[C@@H](O)[C@H](O)[C@H]5O)[C@H](O)[C@H]4O)[C@H](O)[C@H]3O)[C@H](O)[C@H]2O)c1 [Compound 4, m-Carbomethoxyphenyl-O-{C}-(1→4)-O-α-D-glcp-(1→4)-β-D-glucopyranoside] | – | – | – | – | – | – | – | – | Blood sugar ± standard deviation, 15 minutes (glucosidase [1]; 1.56 mg/kg perorally + 1 g starch/kg, starch control 131 ± 7.2, fasting control 60 ± 4.2): 99 ± 8.1 mg/dL; Blood sugar ± standard deviation, 30 minutes (glucosidase [1]; 1.56 mg/kg perorally + 1 g starch/kg, starch control 113 ± 9.2, fasting control 62 ± 3.4): 97 ± 10 mg/dL; Blood sugar ± standard deviation, 15 minutes (glucosidase [2]; 1.56 mg/kg perorally + 2.5 g sucrose/kg, sucrose control 128 ± 8.0, fasting control 60 ± 4.6): 95 ± 7.0 mg/dL; Blood sugar ± standard deviation, 30 minutes (glucosidase [2]; 1.56 mg/kg perorally + 2.5 g sucrose/kg, sucrose control 133 ± 8.7, fasting control 64 ± 3.7): 112 ± 5.5 mg/dL; Blood sugar ± standard deviation, 45 minutes (glucosidase [2]; 1.56 mg/kg perorally + 2.5 g sucrose/kg, sucrose control 134 ± 6.1, fasting control 73 ± 7.1): 104 ± 6.7 mg/dL; Blood sugar ± standard deviation, 60 minutes (glucosidase [2]; 1.56 mg/kg perorally + 2.5 g sucrose/kg, sucrose control 119 ± 10, fasting control 66 ± 4.2): 115 ± 7.0 mg/dL
COC(=O)c1ccc(O[C@@H]2O[C@H](CO)[C@@H](O[C@H]3O[C@H](CO)[C@@H](O[C@H]4O[C@H](C)[C@@H](N[C@H]5C=C(CO)[C@@H](O)[C@H](O)[C@H]5O)[C@H](O)[C@H]4O)[C@H](O)[C@H]3O)[C@H](O)[C@H]2O)cc1 [Compound 6, p-Carbomethoxyphenyl-O-{C}-(1→4)-O-α-D-glcp-(1→5)-β-D-glucopyranoside] | – | – | – | – | – | – | – | – | Blood sugar ± standard deviation, 15 minutes (glucosidase [1]; 0.78 mg/kg perorally + 1 g starch/kg, starch control 131 ± 7.2, fasting control 60 ± 4.2): 110 ± 6.1 mg/dL; Blood sugar ± standard deviation, 30 minutes (glucosidase [1]; 0.78 mg/kg perorally + 1 g starch/kg, starch control 113 ± 9.2, fasting control 62 ± 3.4): 105 ± 10 mg/dL; Blood sugar ± standard deviation, 15 minutes (glucosidase [2]; 0.78 mg/kg perorally + 2.5 g sucrose/kg, sucrose control 128 ± 8.0, fasting control 60 ± 4.6): 96 ± 15 mg/dL; Blood sugar ± standard deviation, 30 minutes (glucosidase [2]; 0.78 mg/kg perorally + 2.5 g sucrose/kg, sucrose control 133 ± 8.7, fasting control 64 ± 3.7): 100 ± 3.4 mg/dL; Blood sugar ± standard deviation, 45 minutes (glucosidase [2]; 0.78 mg/kg perorally + 2.5 g sucrose/kg, sucrose control 134 ± 6.1, fasting control 73 ± 7.1): 106 ± 18 mg/dL; Blood sugar ± standard deviation, 60 minutes (glucosidase [2]; 0.78 mg/kg perorally + 2.5 g sucrose/kg, sucrose control 119 ± 10, fasting control 66 ± 4.2): 117 ± 6.5 mg/dL
C[C@H]1O[C@H](O[C@H]2[C@H](O)[C@@H](O)[C@H](Oc3ccccc3)O[C@@H]2CO)[C@H](O)[C@@H](O)[C@@H]1N[C@H]1C=C(CO)[C@@H](O)[C@H](O)[C@H]1O [Compound 13, Phenyl-O-C-(1→4)-β-D-glucopyranoside] | 70 ± 8.3 | 40 ± 6.8 | 89 ± 9.0 | 100 ± 4.6 | 79 ± 6.8 | 80 ± 5.4 | 85 ± 16 | 86 ± 2.0 | –
CCO[C@@H]1O[C@H](CO)[C@@H](O[C@H]2O[C@H](C)[C@@H](N[C@H]3C=C(CO)[C@@H](O)[C@H](O)[C@H]3O)[C@H](O)[C@H]2O)[C@H](O)[C@H]1O [Compound 15, Ethyl-O-{C}-(1→4)-β-D-glucopyranoside] | – | – | – | – | 80 ± 6.1 | 83 ± 9.4 | 87 ± 4.8 | 94 ± 13 | –
C[C@H]1O[C@H](O[C@H]2[C@H](O)[C@@H](O)[C@H](OCc3ccccc3)O[C@@H]2CO)[C@H](O)[C@@H](O)[C@@H]1N[C@H]1C=C(CO)[C@@H](O)[C@H](O)[C@H]1O [Compound 20, Benzyl-O-{C}-(1→4)-β-D-glucopyranoside] | 87 ± 12 | 83 ± 13 | 99 ± 17 | 111 ± 5.6 | 83 ± 20 | 85 ± 8.3 | 73 ± 8.5 | 69 ± 9.3 | –
C[C@H]1O[C@H](O[C@H]2[C@H](O)[C@@H](O)[C@@H](O[C@@H]([C@H](O)[C@@H](O)CO)[C@H](O)CO)O[C@@H]2CO)[C@H](O)[C@@H](O)[C@@H]1N[C@H]1C=C(CO)[C@@H](O)[C@H](O)[C@H]1O [Compound 22] | – | – | – | – | – | – | – | – | Blood sugar ± standard deviation, 15 minutes (glucosidase [2]; 1.54 mg/kg perorally + 2.5 g sucrose/kg, sucrose control 134 ± 13, fasting control 71 ± 3.7): 80 ± 3.7 mg/dL; Blood sugar ± standard deviation, 30 minutes (glucosidase [2]; 1.54 mg/kg perorally + 2.5 g sucrose/kg, sucrose control 116 ± 20, fasting control 70 ± 5.3): 79 ± 5.2 mg/dL; Blood sugar ± standard deviation, 45 minutes (glucosidase [2]; 1.54 mg/kg perorally + 2.5 g sucrose/kg, sucrose control 125 ± 8.6, fasting control 77 ± 5.5): 86 ± 4.5 mg/dL; Blood sugar ± standard deviation, 60 minutes (glucosidase [2]; 1.54 mg/kg perorally + 2.5 g sucrose/kg, sucrose control 112 ± 15, fasting control 78 ± 7.3): 86 ± 11 mg/dL
